Data taken from patent US20230058623A1, “NOVEL HETEROARYL-TRIAZOLE COMPOUNDS AS PESTICIDES” (Bayer Aktiengesellschaft, priority 2019, published 2023).

Experiments:
Assay type in all cases: in vivo
[1] = system: adult cat fleas (Ctenocephalides felis); assay: Ctenocephalides felis in-vitro contact test, adult cat flea; conditions: application rate 5 μg/cm^2 (=500 g/ha), after 48 hours, read-out: activity (efficacy: fleas dead or moribund)
Outline: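 After 48 h of room-temperature exposure in tubes whose walls carried dried compound residue (5 μg/cm^2, from 900 ppm acetone solution), adult cat fleas (5-10 per tube) were heat-challenged at 45-50° C up to 5 min. Fleas unable to climb away were counted dead or moribund, expressed as % efficacy.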

[2] = system: adult brown dog ticks (Rhipicephalus sanguineus); assay: Rhipicephalus sanguineus in-vitro contact test, adult brown dog ticks; conditions: application rate 5 μg/cm^2 (=500 g/ha), after 48 hours, read-out: activity (efficacy: ticks dead or moribund)
Outline: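 Efficacy is % of adult ticks dead or moribund 48 h after confinement at room temperature in tubes wall-coated from acetone (5 μg/cm² at 900 ppm). Scoring by heat challenge at 45-50 °C up to 5 min; immotile or uncoordinated ticks failing to climb count as affected.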

[3] = system: brown planthopper (Nilaparvata lugens); assay: Nilaparvata lugens spray test; conditions: 96 h, after 4 days, rice plants
Outline: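 Rice plants sprayed with compound diluted in water containing 1000 ppm emulsifier, then infested with brown planthopper. Mortality (%) scored after 4 days, 100% meaning all insects killed.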

[4] = system: adult mosquitoes Culex quinquefasciatus strain P00; assay: Culex quinquefasciatus test (CULXFA surface treatment & contact assay); conditions: 24 hours after contact, read-out: efficacy (mortality); for mortality at 20 mg/m2: surface concentration 20 mg/m^2, exposure 30 minutes
Procedure: Culex quinquefasciatus Test (CULXFA Surface Treatment & Contact Assay)
Solvent: Aceton+2000 ppm rapeseed oil methyl ester (RME)
In order to produce a sufficient, active ingredient containing solution it is necessary to solve the test compound in the solvent-mix (acetone at 2 mg/ml/RME 2 000 ppm). This solution is pipetted onto a glazed tile and after evaporation of the acetone, adult mosquitoes of the species Culex quinquefasciatus strain P00 are placed onto the dried surface. The exposure time is 30 minutes.
Mortality in percent (%) is determined 24 hours after contact of the insects to the treated surface. 100% mortality means that all tested insects are dead, whereas 0% means that no insect died.

[5] = system: Rhipicephalus (Boophilus) microplus larvae (strain Parkhurst, resistant against synthetic pyrethroids); assay: Rhipicephalus (Boophilus) microplus in-vitro contact test, larval cattle tick; conditions: after 48 hours, read-out: activity (efficacy: larvae dead or moribund); for pest or weed control at 1 µg/cm2, 100 g/ha: application rate 1 μg/cm^2 (=100 g/ha); for pest or weed control at 5 µg/cm2, 500 g/ha: application rate 5 μg/cm^2 (=500 g/ha)
Outline: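 Pyrethroid-resistant Parkhurst larvae, 20–50 per tube, were kept 48 h at 27 °C and 85% relative humidity in glass tubes whose inner walls carried a dried acetone film of compound (900 ppm giving 5 μg/cm^2). Dead or moribund larvae, judged by loss of negative geotactic behavior, set percent efficacy.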

[6] = system: adult mosquitoes Anopheles funestus strain FUMOZ-R; assay: Anopheles funestus test (ANPHFU surface treatment & contact assay); conditions: 24 hours after contact, read-out: efficacy (mortality); for mortality at 4 mg/m2: surface concentration 4 mg/m^2, exposure 30 minutes; for mortality at 20 mg/m2: surface concentration 20 mg/m^2, exposure 30 minutes
Outline: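 Compound dissolved in acetone (2 mg/ml) with 2000 ppm rapeseed oil methyl ester and applied to a glazed tile. After acetone evaporation, adult FUMOZ-R mosquitoes were exposed to the dried surface for 30 min. Percent mortality was scored 24 h after contact.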

[7] = system: green peach aphid (Myzus persicae); assay: Myzus persicae spray test; conditions: foliar, 120 h, application rate 100 g/ha, after 5 days, Chinese cabbage leaf disks, read-out: activity (mortality)
Outline: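 Percent kill was recorded 5 days after spraying. Test solutions, prepared with solvent and diluted in 1000 ppm emulsifier water, were applied to Brassica pekinensis leaf disks carrying mixed-instar green peach aphids.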

[8] = system: cattle ticks (Rhipicephalus microplus) strain Parkhurst, SP-resistant; assay: Rhipicephalus (Boophilus) microplus dip test; conditions: 168 h, application rate 100 ppm, egg deposition after 7 days, read-out: activity (efficacy: infertile eggs)
Procedure: Rhipicephalus (Boophilus) microplus—Dip Test
Test animal: cattle ticks (Rhipicephalus microplus) strain Parkhurst, SP-resistant
Solvent: dimethyl sulfoxide
To produce a suitable preparation of active compound, 10 mg of active compound are dissolved in 0.5 mL solvent, and the concentrate is diluted with water to the desired concentration.
This compound solution is pipetted into tubes. 8-10 engorged, adult, female cattle ticks (Rhipicephalus microplus) are placed in perforated tubes. These tubes are immersed in the aqueous compound solution until the ticks are completely moistened. After the liquid has drained off, the ticks are transferred to a filter paper in a plastic tray and stored in a climate chamber.
After 7 days egg deposition of fertile eggs is monitored. Eggs where fertility is not visible are stored in a climate chamber till hatching after about 42 days. An efficacy of 100% means all eggs are infertile; 0% means all eggs are fertile.

Row | Compound | pest or weed control at 5 µg/cm2 [1] [%] | pest or weed control at 5 µg/cm2, 500 g/ha [2] [%] | mortality at 100 g/ha ([3]; application rate 100 g/ha) [%] | mortality at 20 mg/m2 [4] [%] | pest or weed control at 1 µg/cm2, 100 g/ha [5] [%] | pest or weed control at 5 µg/cm2, 500 g/ha [5] [%] | mortality at 4 mg/m2 [6] [%] | mortality at 20 mg/m2 [6] [%] | mortality at 100 g/ha [7] [%] | pest or weed control at 100 ppm [8] [%] | mortality at 500 g/ha ([3]; application rate 500 g/ha) [%] | mortality at 4 mg/m2 ([4]; surface concentration 4 mg/m^2, exposure 30 minutes) [%]
1 | C[C@@H]1CN(C(=O)c2ccc(-n3ncnc3[C@H](C)NC(=O)c3cc(C(F)(F)F)cc(C(F)(F)F)c3)nc2)C[C@H](C)O1 [Example I-50] | 100 | 100 | 90 | 80 to 100 | 100 | 100 | 80 to 100 | 80 to 100 | 90 | 100 |  | 
2 | Cc1nc([C@H](C)NC(=O)c2cc(C(F)(F)F)cc(C(F)(F)F)c2)n(-c2ccc(C(=O)N3CCS(=O)(=O)CC3)cn2)n1 [Example I-76] | 100 | 100 |  | 80 to 100 | 100 | 100 | 80 to 100 | 80 to 100 | 90 |  | 100 | 80 to 100
